The values that follow come from PMC10885593, “Evidence that inositol 1,4,5-trisphosphate 3-kinase and inositol 1,3,4,5-tetrakisphosphate are negative regulators of platelet function” (Research and Practice in Thrombosis and Haemostasis, 2024).

Common to all, as to test: competition pull-down with PIP3 beads, Western blot
Holding throughout (format): binding
On the technique in general: In western blotting, separated proteins are transferred to a membrane and probed.

Assay [1] concerns the target T1, BTK (Homo sapiens, UniProt Q06187).
T1 construct: native full-length protein in NP40 lysate of washed human platelets, captured on PIP3 beads, Western blot read-out
Conditions: human platelet NP40 lysate; competes with bead-bound PIP3 (about 800 nM); pH 7.4, 4 °C, 5 mM EDTA, 5 mM EGTA.

Assay [2] deals with T2, RASA3 (Homo sapiens, UniProt Q14644).
T2 construct: native full-length protein in NP40 lysate of washed human platelets, captured on PIP3 beads, Western blot read-out
T2 sequence (Q14644 2-834): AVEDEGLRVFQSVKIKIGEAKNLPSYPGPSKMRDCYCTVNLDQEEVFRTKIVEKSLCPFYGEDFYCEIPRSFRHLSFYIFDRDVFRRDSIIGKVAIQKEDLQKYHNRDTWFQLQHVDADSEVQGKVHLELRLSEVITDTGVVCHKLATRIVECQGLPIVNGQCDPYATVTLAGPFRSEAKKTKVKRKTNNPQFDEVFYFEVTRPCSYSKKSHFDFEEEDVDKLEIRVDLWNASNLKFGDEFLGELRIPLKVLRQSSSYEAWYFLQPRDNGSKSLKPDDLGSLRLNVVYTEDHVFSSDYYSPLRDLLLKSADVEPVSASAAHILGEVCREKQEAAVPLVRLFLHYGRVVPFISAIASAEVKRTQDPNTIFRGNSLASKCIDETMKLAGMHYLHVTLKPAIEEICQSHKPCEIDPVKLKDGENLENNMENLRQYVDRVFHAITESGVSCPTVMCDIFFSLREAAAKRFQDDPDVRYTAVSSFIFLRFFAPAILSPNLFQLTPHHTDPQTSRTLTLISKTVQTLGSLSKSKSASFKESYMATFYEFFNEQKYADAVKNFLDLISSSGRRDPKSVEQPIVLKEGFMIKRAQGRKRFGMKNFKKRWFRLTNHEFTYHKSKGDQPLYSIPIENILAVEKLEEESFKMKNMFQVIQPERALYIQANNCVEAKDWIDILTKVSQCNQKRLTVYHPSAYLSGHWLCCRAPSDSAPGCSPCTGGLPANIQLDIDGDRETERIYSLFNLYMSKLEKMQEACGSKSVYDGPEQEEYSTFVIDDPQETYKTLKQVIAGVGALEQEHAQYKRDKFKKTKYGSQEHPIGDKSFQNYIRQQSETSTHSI
Conditions: read-out: % inhibition of extraction at 40 μM.

Assay [3] addresses T1, BTK. The conditions noted are these: human platelet NP40 lysate; competes with bead-bound PIP3 (about 800 nM); pH 7.4, 4 °C, 5 mM EDTA, 5 mM EGTA. The source holds these as a separate data set.

Bounds are passed on as bounds.

T1 sequence (Q06187 2-659): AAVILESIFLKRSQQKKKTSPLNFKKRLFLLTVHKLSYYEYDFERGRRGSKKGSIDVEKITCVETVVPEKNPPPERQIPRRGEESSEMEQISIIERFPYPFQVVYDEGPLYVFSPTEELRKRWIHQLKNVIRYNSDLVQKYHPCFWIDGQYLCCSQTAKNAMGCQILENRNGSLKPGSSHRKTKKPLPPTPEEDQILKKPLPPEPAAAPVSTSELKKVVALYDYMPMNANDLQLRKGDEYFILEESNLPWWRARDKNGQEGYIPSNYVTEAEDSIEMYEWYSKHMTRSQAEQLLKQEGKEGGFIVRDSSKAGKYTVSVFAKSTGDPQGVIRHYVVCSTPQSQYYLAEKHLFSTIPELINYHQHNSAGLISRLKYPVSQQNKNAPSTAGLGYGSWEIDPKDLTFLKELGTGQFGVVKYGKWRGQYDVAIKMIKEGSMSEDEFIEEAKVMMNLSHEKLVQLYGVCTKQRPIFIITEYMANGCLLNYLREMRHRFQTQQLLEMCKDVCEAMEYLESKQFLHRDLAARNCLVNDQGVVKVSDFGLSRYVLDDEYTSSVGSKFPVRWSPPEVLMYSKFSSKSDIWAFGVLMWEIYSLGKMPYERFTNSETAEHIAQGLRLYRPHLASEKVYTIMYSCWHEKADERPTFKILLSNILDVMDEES

As for `CCCCCCCC(=O)OC[C@H](COP(=O)(O)O[C@H]1[C@H](O)[C@@H](OP(=O)(O)O)[C@H](OP(=O)(O)O)[C@@H](OP(=O)(O)O)[C@H]1O)OC(=O)CCCCCCC` [DiC8-PIP3], the “inhibition of extraction by PIP3 beads at 40 μM” value in assay [1] is “exogenously added DiC8-PIP3 was marginally less potent at competing with PIP3 beads”.

Consider `O=P(O)(O)OC1[C@H](O)[C@H](OP(=O)(O)O)C(OP(=O)(O)O)[C@H](OP(=O)(O)O)[C@H]1O` (stereo partly drawn) [IP4], for which the inhibition (in general, the change of the read-out against control, counted positive when it falls) at 40 µM in assay [2] is over 90%. In addition, the “inhibition of extraction by PIP3 beads” value in assay [3] is recorded as “IP4 also reduced extraction of the PH domain–bearing tyrosine kinase BTK”.
